Measurements reported in patent US9193719B2, “1,2,4-triazol-5-ones and analogs exhibiting anti-cancer and anti-proliferative activities” (Deciphera Pharmaceuticals, LLC, priority 2013, dated 2015).

Tests used:
[1] = biological target: T1, unphosphorylated c-FMS kinase (uFMS, Seq. ID no. 1) (Homo sapiens, UniProt P07333); assay: uFMS kinase enzymatic assay (pyruvate kinase/lactate dehydrogenase coupled); assay type: biochemical; conditions: ATP 500 μM, rate 3 to 4 h
T1 construct: purchased Millipore
T1 sequence (P07333 538-972): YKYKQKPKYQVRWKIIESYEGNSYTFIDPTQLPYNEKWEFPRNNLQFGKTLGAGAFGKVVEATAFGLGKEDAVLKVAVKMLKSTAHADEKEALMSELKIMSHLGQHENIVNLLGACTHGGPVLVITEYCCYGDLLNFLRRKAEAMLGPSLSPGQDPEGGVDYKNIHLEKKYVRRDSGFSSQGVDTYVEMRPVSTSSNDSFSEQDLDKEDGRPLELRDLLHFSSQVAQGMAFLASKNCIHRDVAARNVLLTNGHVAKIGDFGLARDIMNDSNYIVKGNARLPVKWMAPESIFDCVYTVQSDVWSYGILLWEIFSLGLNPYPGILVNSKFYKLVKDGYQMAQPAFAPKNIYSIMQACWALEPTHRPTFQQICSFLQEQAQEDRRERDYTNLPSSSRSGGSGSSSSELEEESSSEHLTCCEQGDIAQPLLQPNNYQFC
In short: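 Coupled PK/LDH assay following NADH oxidation at A340 with 10 nM unphosphorylated FMS, 1 mg/mL polyE4Y, 500 μM ATP in 90 mM Tris pH 7.5, 0.2% octyl-glucoside, 1% DMSO. Read continuously 4 h at 30 °C; rate from 3–4 h window versus no-compound control; IC50 from percent-inhibition series.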

[2] = biological target: T2, unphosphorylated c-KIT kinase (uKIT, Seq. ID no. 2) (Homo sapiens, UniProt P10721); assay: uKit kinase enzymatic assay (pyruvate kinase/lactate dehydrogenase coupled); assay type: biochemical; conditions: ATP 2000 μM, rate 3 to 4 h
T2 construct: uKit with N-terminal GST fusion used for screening
In short: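 Coupled pyruvate kinase/lactate dehydrogenase readout of ADP, following NADH oxidation at A340 continuously for 4 h at 30 °C. Mix: 12 nM unphosphorylated KIT, 1 mg/mL polyE4Y, 2000 μM ATP, 10 mM MgCl2, 90 mM Tris pH 7.5, 0.2% octyl-glucoside, 1% DMSO. IC50 from % inhibition of rates at 3–4 h.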

[3] = biological target: T3, unphosphorylated PDGFRβ kinase (uPDGFRβ, Seq. ID No. 3) (Homo sapiens, UniProt P09619); assay: uPDGFRβ kinase enzymatic assay (pyruvate kinase/lactate dehydrogenase coupled); assay type: biochemical; conditions: ATP 500 μM, rate 1.5 to 2.5 h
T3 construct: purchased DeCode
In short: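 Unphosphorylated PDGFRβ (15.7 nM) with 500 μM ATP and poly E4Y (2.5 mg/mL) in Tris pH 7.5, 0.2% octyl-glucoside, 1% DMSO; ADP coupled via PK/LDH to NADH oxidation at A340, read continuously 4 h at 30 °C. Rates from 1.5–2.5 h window versus no-compound control gave IC50.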

osteoclast precursors = assay: Osteoclast tartrate-resistant acid phosphatase assay; assay type: cell-based; conditions: RANKL and M-CSF, 7-14 days, tartrate-resistant acid phosphatase activity

T2 sequence (P10721 with tags, fused parts or gaps): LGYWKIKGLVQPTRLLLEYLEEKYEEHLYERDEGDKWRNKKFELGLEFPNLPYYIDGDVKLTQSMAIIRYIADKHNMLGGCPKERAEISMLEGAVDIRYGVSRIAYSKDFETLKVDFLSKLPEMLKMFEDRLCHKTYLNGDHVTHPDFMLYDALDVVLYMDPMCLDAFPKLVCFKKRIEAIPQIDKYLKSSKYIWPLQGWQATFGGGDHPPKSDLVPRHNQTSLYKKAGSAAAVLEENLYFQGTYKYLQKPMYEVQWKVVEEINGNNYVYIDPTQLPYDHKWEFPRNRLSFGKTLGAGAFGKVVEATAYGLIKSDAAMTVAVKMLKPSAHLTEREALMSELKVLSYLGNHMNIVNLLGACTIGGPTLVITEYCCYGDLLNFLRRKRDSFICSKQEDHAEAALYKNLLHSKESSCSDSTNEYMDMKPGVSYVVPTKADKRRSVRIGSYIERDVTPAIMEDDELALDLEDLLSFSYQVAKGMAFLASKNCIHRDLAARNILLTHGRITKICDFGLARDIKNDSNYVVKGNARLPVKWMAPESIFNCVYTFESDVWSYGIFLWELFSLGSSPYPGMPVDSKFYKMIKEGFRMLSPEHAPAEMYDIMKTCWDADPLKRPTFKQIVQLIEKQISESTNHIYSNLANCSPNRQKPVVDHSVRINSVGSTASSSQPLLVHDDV
T3 sequence (P09619 557-1106): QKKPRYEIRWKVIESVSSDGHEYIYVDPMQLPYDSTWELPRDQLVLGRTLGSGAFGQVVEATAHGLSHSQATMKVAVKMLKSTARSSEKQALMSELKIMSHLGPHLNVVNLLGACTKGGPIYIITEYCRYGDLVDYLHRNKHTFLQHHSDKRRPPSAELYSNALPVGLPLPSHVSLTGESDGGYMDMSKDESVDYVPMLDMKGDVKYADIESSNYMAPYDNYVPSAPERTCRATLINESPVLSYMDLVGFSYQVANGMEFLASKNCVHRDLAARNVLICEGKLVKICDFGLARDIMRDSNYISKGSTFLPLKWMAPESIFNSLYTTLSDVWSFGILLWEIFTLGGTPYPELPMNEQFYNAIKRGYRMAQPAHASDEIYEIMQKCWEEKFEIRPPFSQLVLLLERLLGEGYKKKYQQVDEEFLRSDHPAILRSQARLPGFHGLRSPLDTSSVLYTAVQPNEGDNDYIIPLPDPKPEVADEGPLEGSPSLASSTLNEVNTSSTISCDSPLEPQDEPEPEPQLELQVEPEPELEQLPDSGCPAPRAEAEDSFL

| IC50 [1] [nM] | IC50 [2] [nM] | IC50 [3] [nM] | IC50 (osteoclast precursors) [nM] | Compound |
| --- | --- | --- | --- | --- |
| ≤ 10 | 10 to 100 | 100 to 1000 | 10 to 100 | Cc1nc(-n2nc(CC(C)(C)C)[nH]c2=O)ccc1Oc1ccnc(-c2cnn(C)c2)c1 [Example 36, 1-(6-methyl-5-((2-(1-methyl-1H-pyrazol-4-yl)pyridin-4-yl)oxy)pyridin-2-yl)-3-neopentyl-1H-1,2,4-triazol-5(4H)-one] |
| 10 to 100 | 100 to 1000 | > 1000 | 10 to 100 | Cc1cc(-c2cc(Oc3ccc(-n4nc(C(C)(C)C)[nH]c4=O)nc3C)ccn2)ccn1 [Example 9, 3-(tert-butyl)-1-(6-methyl-5-((2′-methyl-[2,4′-bipyridin]-4-yl)oxy)pyridin-2-yl)-1H-1,2,4-triazol-5(4H)-one] |
| 10 to 100 | 100 to 1000 | > 1000 | 10 to 100 | Cc1nc(-n2nc(C(C)(C)C)oc2=O)ccc1Oc1ccnc(-c2cnn(C)c2)c1 [Example 49, 5-(tert-butyl)-3-(6-methyl-5-((2-(1-methyl-1H-pyrazol-4-yl)pyridin-4-yl)oxy)pyridin-2-yl)-1,3,4-oxadiazol-2(3H)-one] |
| ≤ 10 | 10 to 100 | > 1000 | 10 to 100 | Cn1cc(-c2cc(Oc3ccc(-n4nc(C(C)(C)C)[nH]c4=O)nc3)ccn2)cn1 [Example 4, 3-(tert-butyl)-1-(5-((2-(1-methyl-1H-pyrazol-4-yl)pyridin-4-yl)oxy)pyridin-2-yl)-1H-1,2,4-triazol-5(4H)-one] |
| 10 to 100 | > 1000 | > 1000 | 10 to 100 | Cc1ccc(-c2cc(Oc3ccc(-n4nc(C(C)(C)C)[nH]c4=O)nc3C)ccn2)cn1 [Example 10, 3-(tert-butyl)-1-(6-methyl-5-((6′-methyl-[2,3′-bipyridin]-4-yl)oxy)pyridin-2-yl)-1H-1,2,4-triazol-5(4H)-one] |
| ≤ 10 | 100 to 1000 | 100 to 1000 | 10 to 100 | Cc1nc(-n2nc(Cc3ccccc3)[nH]c2=O)ccc1Oc1ccnc(-c2cnn(C)c2)c1 [Example 2, 3-benzyl-1-(6-methyl-5-((2-(1-methyl-1H-pyrazol-4-yl)pyridin-4-yl)oxy)pyridin-2-yl)-1H-1,2,4-triazol-5(4H)-one] |
| 10 to 100 | > 1000 | > 1000 | 10 to 100 | Cc1nc(-n2nc(C(C)(C)C)[nH]c2=O)ccc1Oc1ccnc(-c2cnco2)c1 [Example 39, 3-(tert-butyl)-1-(6-methyl-5-((2-(oxazol-5-yl)pyridin-4-yl)oxy)pyridin-2-yl)-1H-1,2,4-triazol-5(4H)-one] |
| ≤ 10 | 10 to 100 | 10 to 100 | 10 to 100 | Cn1cc(-c2cc(Oc3ccc(-n4nc(Cc5ccc(F)cc5)[nH]c4=O)nc3)ccn2)cn1 [Example 3, 3-(4-fluorobenzyl)-1-(5-((2-(1-methyl-1H-pyrazol-4-yl)pyridin-4-yl)oxy)pyridin-2-yl)-1H-1,2,4-triazol-5(4H)-one] |
| 10 to 100 | 100 to 1000 | > 1000 | 10 to 100 | Cc1nc(-n2nc(C(C)C)[nH]c2=O)ccc1Oc1ccnc(-c2cnn(C)c2)c1 [Example 5, 3-isopropyl-1-(6-methyl-5-((2-(1-methyl-1H-pyrazol-4-yl)pyridin-4-yl)oxy)pyridin-2-yl)-1H-1,2,4-triazol-5(4H)-one] |
| ≤ 10 | 100 to 1000 | 100 to 1000 | 10 to 100 | Cc1nc(-n2nc(Cc3ccc(F)cc3)[nH]c2=O)ccc1Oc1ccnc(-c2cnn(C)c2)c1 [Example 1, 3-(4-fluorobenzyl)-1-(6-methyl-5-((2-(1-methyl-1H-pyrazol-4-yl)pyridin-4-yl)oxy)pyridin-2-yl)-1H-1,2,4-triazol-5(4H)-one] |
| 10 to 100 | 100 to 1000 | > 1000 | 10 to 100 | COCC(C)(C)c1nn(-c2ccc(Oc3ccnc(-c4cnn(C)c4)c3)c(C)n2)c(=O)[nH]1 [Example 46, 3-(1-methoxy-2-methylpropan-2-yl)-1-(6-methyl-5-((2-(1-methyl-1H-pyrazol-4-yl)pyridin-4-yl)oxy)pyridin-2-yl)-1H-1,2,4-triazol-5(4H)-one] |
| ≤ 10 | 10 to 100 | > 1000 | 10 to 100 | Cc1nc(-n2nc(CC(C)C)[nH]c2=O)ccc1Oc1ccnc(-c2cnn(C)c2)c1 [Example 22, 3-isobutyl-1-(6-methyl-5-((2-(1-methyl-1H-pyrazol-4-yl)pyridin-4-yl)oxy)pyridin-2-yl)-1H-1,2,4-triazol-5(4H)-one] |
| ≤ 10 | 100 to 1000 | > 1000 | 10 to 100 | Cc1nc(-n2nc(C3(C)CC3)[nH]c2=O)ccc1Oc1ccnc(-c2cnn(C)c2)c1 [Example 27, 1-(6-methyl-5-((2-(1-methyl-1H-pyrazol-4-yl)pyridin-4-yl)oxy)pyridin-2-yl)-3-(1-methylcyclopropyl)-1H-1,2,4-triazol-5(4H)-one] |
| 10 to 100 | > 1000 | > 1000 | 10 to 100 | Cc1nc(-n2nc(C(C)(C)C)[nH]c2=O)ccc1Oc1cc(-c2cnn(C)c2)ncn1 [Example 47, 3-(tert-butyl)-1-(6-methyl-5-((6-(1-methyl-1H-pyrazol-4-yl)pyrimidin-4-yl)oxy)pyridin-2-yl)-1H-1,2,4-triazol-5(4H)-one] |
